Measurements: patent US9863933B2, “Method for determining the repair activity of non-homologous end joining” (Soochow University, priority 2015, dated 2018)

Assays:
Format in all cases: cell-based
[1] = system: NHEJ repair activity in 293T cells; test: NHEJ repair activity by TALEN-induced HPRT mutation, 6-TG selection and MTT cell viability; conditions: for inhibition rate of NHEJ repair activity: then 30 μmol/L 6-TG 72 h
Description: The inhibiting effects of different concentrations of NU7441 on NHEJ are determined by using the TALEN technology, and the specific steps are as follows:
(1) a TALEN plasmid for HPRT gene was constructed. The specific steps comprise: a left-arm recognition sequence ATGACCTTGATTTA (SEQ ID NO:1) and a right-arm recognition sequence CCAAATCCTCAGCA (SEQ ID NO:2) of the target HPRT gene were designed according to the TALEN design principle, and the two recognition sequences were inserted into a corresponding backbone carrier according to the method indicated on the TALEN construction kit. Competent E. coli cells were transformed with the carrier, uniformly spread on a kanamycin-resistant (20 μg/ml) plate and cultured in an incubator at 37° C. for 12-16 h, then 3-5 clones were selected and inoculated in 5 ml LB culture solution (containing 20 μg/ml kanamycin), and cultured in a shaker at 250 rpm under 37° C. for 16 h, plasmids were extracted and sequenced, and the obtained sequences were compared with the designed recognition sequences, ensuring the left-arm and right-arm TALEN plasmids with correct sequences were obtained.
(2) the left-arm and right-arm TALEN plasmids were transfected into 293T cells. The specific steps comprise: 293T cells were inoculated into a culture dish of 6 cm, and 4 μg left-arm plasmids and 4 μg right-arm plasmids were transfected into the 293T cells by using Lipofectamine 3000 when cell density reached 70%.
(3) the 293T cells were treated with different concentrations of the inhibitor NU7441. […]
(§1) (5) cell viability was determined by a MTT method. The specific steps comprise: a MTT solution was added after the treatment was completed, 2 h later, the formed blue formazan particles were dissolved with DMSO, and then the light absorption value of each well was determined at OD570 nm via a microplate reader. […]

[2] = system: NHEJ repair activity in 293T cells; test: NHEJ repair activity by CRISPR/Cas9-induced HPRT mutation, 6-TG selection and MTT cell viability (NU7441 treatment time)
Description: The time dependence of the inhibiting effect of 2.0 μmol/L NU7441 on NHEJ was determined by using the CRISPR/Cas9 technology, specific steps were as follows:
(1) a Cas9/gRNA plasmid was constructed for HPRT gene. The specific steps comprise: a target site primer of HPRT was designed according to a gRNA design principle, wherein the forward primer is […] (SEQ ID NO:3), and the reverse primer is […] (SEQ ID NO:4). The primers were annealed to form a dimer, and the gRNA-sequence primer dimer was inserted into a Cas9/gRNA plasmid according to the method indicated on the CRISPR/Cas9 construction kit. Competent E. coli cells were transformed with the plasmid, spread on an ampicillin-resistant plate. 3-5 clones were selected and cultured in a shaker, plasmids were extracted and sequenced, and the obtained sequences were compared with the designed recognition sequences, ensuring the Cas9/gRNA plasmids with correct sequences were obtained.
(2) the Cas9/gRNA plasmids were transfected into 293T cells. […]
as §1

[3] = system: NHEJ repair activity in 293T cells; test: NHEJ repair activity by CRISPR/Cas9-induced HPRT mutation with siRNA co-transfection, 6-TG selection and MTT cell viability; conditions: CRISPR/Cas9, 3 μg siRNA co-transfected, versus negative control siRNA
Description: The inhibiting effect of DNA-PKcs siRNA on NHEJ was determined by using a CRISPR/Cas9 technology, and the specific steps comprise:
(1) a Cas9/gRNA plasmid was constructed for HPRT gene, and the specific steps are as described in the embodiment 2.
(2) the Cas9/gRNA plasmid and DNA-PKcs siRNA were co-transfected into 293T cells. The specific steps comprise: 293T cells were inoculated into a culture dish of 6 cm, and 3 μg Cas9/gRNA plasmid and 3 μg DNA-PKcs siRNA were co-transfected into the 293T cells by using Lipofectamine 3000 when cell density reached 70%, and a negative control siRNA was transfected for the negative control group. The gene sequence of DNA-PKcs siRNA was […] (SEQ ID NO:5).
(3) the cells were treated with 6-TG. The specific steps comprise: the cells were inoculated into a 96-well plate after the transfection is performed for 24 h, then the culture medium was replaced with a DMEM culture medium containing 30 μmol/L 6-TG after cell attachment, and the cells were continually cultured for 72 h.
(4) cell viability was determined by a MTT method. The specific steps comprise: a MTT solution was added after the treatment was completed, 2 h later, the formed blue formazan particles were dissolved with DMSO, and then the light absorption value of each well was determined at OD570 nm via a microplate reader. […]

Compound | inhibition rate of NHEJ repair activity ([1]; 0.5 μmol/L for 4 h) | inhibition rate of NHEJ repair activity ([1]; 1.0 μmol/L for 4 h) | inhibiting effect on NHEJ repair activity ([1]; concentration increased to 2.0 μmol/L, 4 h (compared with 0.5, 1.0 μmol/L)) | inhibition rate of NHEJ repair activity ([2]; CRISPR/Cas9, 2.0 μmol/L for 1 h, then 30 μmol/L 6-TG 72 h) | inhibiting effect on NHEJ activity ([2]; CRISPR/Cas9, 2.0 μmol/L, treatment longer than 1 h (2 and 4 h)) | repair activity of NHEJ [3]
O=c1cc(N2CCOCC2)oc2c(-c3cccc4c3sc3ccccc34)cccc12 [NU7441] | about 50% | about 50% | the inhibiting effect was reduced | about 50% | reduced over time | –
DNA-PKcs siRNA: siRNA of the NHEJ repair molecule DNA-PKcs, sequence UUCUCCGAACGUGUCACGUTT (SEQ ID NO:5), synthesized by GenePharma (chemistry not given here) | – | – | – | – | – | inhibited significantly
